Test results: US20170183637A1, “SPLIT RECOMBINANT LUCIFERASE, AND ANALYSIS METHOD USING THEREOF” (OLYMPUS CORPORATION, priority 2014, published 2017)

Key:
[1] = test system: 5HT2A receptor-expressing HEK293 cells; assay: High-speed luminescence imaging of changes in calcium ion concentrations upon 5HT stimulation (Experiment 11); format: cell-based, human; conditions: 5HT 10 μM; cpSfRE55-CaM in 5HT2A receptor-expressing HEK293 cells; images every 500 milliseconds; FIG. 15
Method: The cells cultured in Procedure 1 were seeded onto 35 mm-diameter glass bottom dishes at a density of 2×10^5 cells/dish and cultured overnight in a 5% CO2 incubator. The human 5HT2A receptor expression plasmid pcDNA/5HT2AR and luminescent calcium indicator expression plasmid were transferred into the cells by electroporation using NEPA21 and the cells were cultured overnight in a 5% CO2 incubator.
2 mM luciferin (Promega) was added to the culture medium of the culture obtained in Procedure 2 and the culture was allowed to stand for 1 h. The culture dish was loaded onto a luminescence microscope (LV-200, Olympus) and time-lapse image capturing was performed to acquire luminescence images at an interval of 500 milliseconds. Luminescence observation conditions were as follows: magnification of objective lens:=40×, exposure time=200 milliseconds, and binning=2×2. Using an EM-CCD camera (iXon, Andor), luminescence images were taken and transferred to a personal computer. […]
Regions of interest (ROIs) were designated for each luminescence image captured in Procedure 3 and for each luminescence image captured in Procedure 4. […] The luminescence images were analyzed using MetaMorph software (Universal imaging). […]

[2] = test system: HEK293 cells; assay: Luminescence measurement of changes in intracellular calcium level in HEK293 cells upon ATP stimulation (Experiment 9); format: cell-based; conditions: ATP 200 μM, luciferin 2 mM, luminometer, FIG. 13
Method: HEK293 cells (1×10^6 cells) were collected by centrifugation and luminescent calcium indicator expression vectors were transferred into the cells by electroporation using NEPA21. The transfected HEK293 cells were seeded into a 24-well multiplate at a concentration of 1×10^5 cells/well and cultured overnight in a 5% CO2 incubator.
After rinsing the cells with CO2-independent culture medium twice, 200 μL of CO2-independent culture medium containing D-luciferin (final conc.=2 mM) was added and the plate was allowed to stand for 15 min.
The plate was placed in a luminometer (Luminescencer-JNR II, ATTO), and luminescence intensity for pre- and post-ATP (200 μM) stimulation was measured over time.
Luminescent calcium indicators were transferred into HEK293 cells and the cells were cultured overnight. The cells were rinsed with CO2-independent culture medium, luciferin was added to the CO2-independent culture medium to a final luciferin concentration of 2 mM, and the culture was allowed to stand for 15 min, followed by measurement of luminescence intensity using a luminometer.

[3] = test system: HEK293 cells; assay: Luminescence-based calcium imaging in HEK293 cells upon ATP stimulation (Experiment 10); format: cell-based; conditions: FIG. 14
Method: HEK293 cells were acquired from ATCC and cultured in a 5% CO2 incubator in Earle's MEM culture medium (GIBCO) supplemented with 10% Fetal Bovine Serum and 1× Nonessential amino acids.
The cultured HEK293 cells were seeded onto 35 mm-diameter glass bottom dishes at a density of 2×10^5 cells/dish and cultured overnight in a 5% CO2 incubator. Luminescent calcium indicator expression plasmids were transferred into the HEK293 cells by electroporation using NEPA21 and cultured overnight in a 5% CO2 incubator.
2 mM luciferin (Wako Pure Chemical industries, Ltd.) was added to the culture medium and the culture was allowed to stand for 1 h. The culture dish was then loaded onto a luminescence microscope (LV-200, Olympus) and time-lapse image capturing was performed to acquire luminescence images at an interval of 10 sec. Luminescence observation conditions were as follows: magnification of objective lens=40×, exposure time=5 sec, and binning=1×1. An EM-CCD camera (iXon, Andor) was used as a CCD camera, and luminescence images were transferred to a personal computer configured as an image analyzer.
Changes in luminescence intensity of luminescent calcium indicators in response to changes in intracellular calcium ion concentration upon addition of ATP in culture medium were imaged. […] The luminescence images were transferred to the PC every 10 sec. […]

[4] = test system: E. coli (JM109 (DE3)); assay: Luminescence activity of permutated and heterologous permutated firefly luciferase expressed in E. coli (Experiments 1 and 2); format: cell-based; conditions: Bright-Glo, 5 min room temperature, counts per 10 sec, FIG. 3
Method: The pRSET vector containing the permutated firefly luciferase gene was transformed into JM109(DE3) strain of E. coli and cultured overnight at 37° C. To 50 μL of culture was added 50 μL of Bright-Glo (Promega) and the culture was allowed to stand for 5 min at room temperature. Luminescence level for 10 sec was then measured using a luminometer (Luminescencer-JNR II, ATTO).
The prepared expression vector was transformed into E. coli (JM109 (DE3)) and cultured overnight in LB medium. To 50 μL of culture was added an equal volume of Bright-Glo and the culture was allowed to stand for 5 min at room temperature. Luminescence level of the reaction solution was reported as counts per 10 sec measured with the luminometer. As a control, permutated luciferase (GL4) derived from the North American firefly (Pholinus pyralis) luciferase was used. In FIG. 3, luminescence activities of GL4-derived and OKI-derived permutated luciferases are shown in terms of relative values with the activity of GL4 being 1. The vertical axis in FIG. 3 represents relative luminescence level.
The pRSET vector containing the heterologous permutated luciferase gene was transformed into JM109(DE3) strain of E. coli and cultured overnight at 37° C. in LB medium. […] Luminescence level for 10 sec was then measured using a luminometer (Luminescencer-JNR II, ATTO). […]

NCCc1c[nH]c2ccc(O)cc12 [5HT, Serotonin]
luminescence intensity response of indicator-expressing cells to 5HT stimulation [1]: cells that exhibited oscillation, as well as cells that exhibited a transient reduction in luminescence intensity

Nc1ncnc2c1ncn2[C@@H]1O[C@H](COP(=O)(O)OP(=O)(O)OP(=O)(O)O)[C@@H](O)[C@H]1O [ATP, adenosine tri phosphate]
change in luminescence intensity of luminescent calcium indicator upon ATP stimulation [2]: reductions in luminescence intensity
time course of luminescence intensity change caused by ATP stimulation [3]: transient
luminescence intensity of indicator-expressing cells after ATP stimulation (single-cell imaging) ([3]; luciferin 2 mM, exposure 5 sec): decreased levels of luminescence intensity

B1: OKI359: C-terminal fragment, residues 359 to 562 of OKI-derived luciferase; names the permutated luciferase made with OKI-N (protein)
chain: KPGACGKVAPFFSAKIVDLDTSKTLGVNQRGELCLKGPMIMKGYVNNPEATNALIDKDGWLHSGDLAYYDKDGHFFIVDRLKSLIKYQGYQVPPAELESILLQHPFIFDAGVAGIPDADAGELPAAVVVLEEGKTMTEQEVMDYVAGQVTASKRLRGGVKFVDEVPKGLTGKIDSRKIREMLTMGKKSKL
luminescence activity (relative luminescence level, GL4 being 1) [4]: high levels of luminescence activity
